Experimental data: article PMC10499406 (Clinical and Translational Science, 2023)

How the values were obtained:
[1] = tested on: CYP3A4; details: human, in vivo
[2] = tested on: CYP3A4; assay: clinical; details: human, in vivo
[3] = Plasma PK of metabolite indacenyl amine after GDC‐2394; format: in vivo, human
[4] = tested on: IL‐1β; details: patients with atherosclerosis and residual inflammation ref 8; cited from earlier work

Molecule: Cc1ncc2n1-c1ccc(Cl)cc1C(c1ccccc1F)=NC2 [Midazolam, midazolam, reference compound]
- AUC0–inf GMR [1]: 97%
- AUC0–inf GMR (test/reference), estimate [1]: 0.97
- AUC0–last GMR [1]: 101%
- AUC0–last GMR (test/reference), estimate [1]: 1.01
- C max GMR (test/reference), estimate [1]: 1.12
- Cmax GMR [1]: 112%
- AUC(0-inf) [2]: 56 ng·h/mL
- AUC(0-t) [2]: 53.8 ng·h/mL
- Cmax [2]: 25.6 ng/mL
- AUC(0-inf) ([2]; 5 mg): 57.8 ng·h/mL
- AUC(0-t) ([2]; 5 mg): 53.4 ng·h/mL
- Cmax ([2]; 5 mg): 22.9 ng/mL

Molecule: Nc1c2c(cc3c1CCC3)CCC2 [indacenyl amine, 1,2,3,5,6,7‐hexahydro‐s‐indacen‐4‐amine]
- day 7 predose indacenyl amine concentration, range ([3]; MAD 900‐mg b.i.d. cohort): 65.8 to 158 ng/mL
- half-life ([3]; human, plasma, oral): 36 to 49 h

Molecule: canakinumab: an anti‐IL‐1β antibody
- frequency of cardiovascular events [4]: significantly reduced
